Laboratory results as given in patent US20220218675A1, “TREATMENT OF OCULAR DISEASE” (PREMARK PHARMA GMBH, priority 2019, published 2022).

Tests used:
[1] = slightly soluble in water; cited from earlier work
[2] = tested on: animal models of skin inflammation; settings: in vivo; cited from earlier work
[3] = Solubility of pimecrolimus in different solvents (HPLC after 24-hour equilibration at 25 °C); format: physicochemical
Experimental: FIG. 2: Solubility of pimecrolimus in different solvents. […] Form B refers to the anhydrous, crystalline polymorph B of pimecrolimus that has been used in the manufacture of the composition according to the invention. The legend in the lower table defines the terms used for the categorization of solubility.
The solubility of pimecrolimus in different solvents was determined by HPLC after 24-hour equilibration (vibration) at 25.0+/−0.5° C. After the vibration, the precipitate was separated from the solution, dried and investigated by DSC and by X-ray diffraction pattern.

[4] = tested on: skin; settings: cited from earlier work

OCCc1ccccc1 [Phenyl ethyl alcohol, 2-phenyl-ethan-1-ol]
Solubility in water [1]: 2 ml/100 ml H2O

CC[C@@H]1/C=C(\C)C[C@H](C)C[C@H](OC)[C@H]2O[C@@](O)(C(=O)C(=O)N3CCCC[C@H]3C(=O)O[C@H](/C(C)=C/[C@@H]3CC[C@H](Cl)[C@H](OC)C3)[C@H](C)[C@@H](O)CC1=O)[C@H](C)C[C@@H]2OC [pimecrolimus, (1R,9S,12S,13R,14S,17R,18E,21S,23S,24R,25S,27R)-12-[(1E)-2-{(1R,3R,4S)-4-chloro-3-methoxycyclohexyl}-1-methylvinyl]-17-ethyl-1,14-dihydroxy-23,25-dimethoxy-13,19,21,27-tetramethyl-11,28-dioxa-4-aza-tricyclo[22.3.1.04,9]octacos-18-ene-2,3,10,16-tetraone]
Efficacy in animal models of skin inflammation [2]: highly effective | Solubility in excipients that can be used in semi-solid formulations for dermal and ophthalmic use [3]: very poor | Solubility in aqueous solutions and water ([3]; 24-hour equilibration at 25.0+/-0.5 °C, HPLC, FIG. 2): insoluble | Potential for systemic immunosuppression ([4]; compared with cyclosporin A and tacrolimus): lower potential for systemic immunosuppression than cyclosporin A and tacrolimus | Anti-inflammatory activity in the skin, topical ([4]; compared with cyclosporin A): greater anti-inflammatory activity in the skin than cyclosporin A | Skin atrophy ([4]; in contrast to steroids): does not induce skin atrophy
